Experimental data from patent publication US20240390434A1, “PROBIOTIC ENHANCERS AND USES THEREOF” (Blis Technologies Limited, priority 2021, published 2024).

Columns and labels:
Assay type in all cases: cell-based
[1] = test system: S. pneumoniae D39; assay: Deferred antagonism assay, producer S. salivarius M18; details: Streptococcus pneumoniae, D39, M18, read-out: Size of zone inhibition normalised to control, S. pneumoniae D39
Procedure: (§1) 1-2 producer strain colonies were transferred from a stock plate into 900 μL of suspension solution using a fresh cotton swab. Following this, suspensions were vortexed, and a sample was inoculated onto solid culture media using a fresh cotton swab. The inoculation was a streak that runs diametrically across the agar plate in a 1.5 cm wide strip. The plate was then incubated. Following incubation all visible colonies were removed by swabbing them from the agar surface. The plates were then treated with chloroform by dispensing 2 ml of chloroform onto 4 cm×4 cm piece of cloth and sealing the inverted agar plate on top for 30 minutes. The plates were then air dried for 30 minutes following chloroforming. 1-2 indicator strain colonies were then transferred from a stock plate into complementary suspension solution. The suspensions were then vortexed, and a sample was inoculated onto the same agar surface. These samples were streaked in a perpendicular direction to the initial producer streak.
(§2) Each indicator streak was prepared with fresh a suspension containing cells from a corresponding stock plate containing the indicator strain of interest. Indicator strains suspension samples were transferred using a fresh cotton swab. Results were measured by qualitatively reviewing the subsequent (if any) sizes of the zones of inhibition (ZOI) of indicator strain colony growth. A positive result is when there is a distinctive reduction or complete inhibition of indicator colony growth on the culture medium.
(§3) CABCa agar plates containing various concentrations of saccharide were prepared according to the methods described in Method 1. Producer strains were transferred from stock agar plates into 900 μL THB using a fresh cotton swab. A plastic spread plater was cut to approximately 1.2 cm width and then dipped into ethanol and left to air dry to ensure sterility. A 100 μL sample of the producer strain suspension was then dispensed onto the agar surface in a straight line running diametrically across the agar surface in (approximately) 20 μL spots. The spots were spaced approximately 1.5 cm apart from each other. The plastic spreader was then used to evenly distribute the spots across the agar surface in a 1.5 cm wide strip. This step was taken to ensure an even producer streak was inoculated onto the agar surface and provided an approximate measure of the initial inoculum concentration. Separate plastic spreaders were used for samples containing different producer strains. The samples were left to soak into the agar surface until there was no visible liquid remaining on the agar surface (approximately 20 minutes). Following producer streak preparations, the deferred antagonism assay protocol was followed as per Method 2. Results were recorded by measuring the size of the zone of inhibition (ZOI) in mm.
(§4) A dose response assay was carried out according to method 3 above, except a 1.2 cm streak was used. For the individual saccharide testing the pH of the producer streak was adjusted after the growth of producer to change the acidic conditions.
(§5) A deferred antagonism assay was conducted using K12 or M18 raw ingredient suspended in Todd Hewitt broth (THB). This was spread as a 1.2 cm streak containing approximately 1-2×10^6 cfu down the middle of a CABCa control or CABCa galactose supplemented test plate. After 18 hrs growth at 37° C. with 5% CO2, bacterial growth was removed, and the pH of the agar in the initial streak was measured and adjusted to a pH of 6.5-7.5 using 0.5M sodium carbonate pH11 before sterilizing the agar surface using chloroform vapor. Bacterial test strains were suspended in i-THB before being swabbed across the plates perpendicular to the initial streak. Plates were incubated for a further 18 hrs incubation at 37° C. with 5% CO2 before measuring (mm) any zones of inhibition for each test strain, […]

[2] = test system: S. aureus A222; assay: as above; details: Staphylococcus aureus, A222, M18, read-out: Size of zone inhibition normalised to control, S. aureus A222
Procedure: as §1, §2, §3, §4, §5

[3] = test system: S. mutans OMZ175; assay: as above; details: Streptococcus mutans, OMZ175, M18, read-out: Size of zone inhibition normalised to control, S. mutans OMZ175
Procedure: as §1, §2, §3, §4, §5

[4] = test system: S. pyogenes 71-698; assay: as above; details: Streptococcus pyogenes, 71698, M18, read-out: Size of zone inhibition normalised to control, S. pyogenes 71-698
Procedure: as §1, §2, §3, §4, §5

[5] = test system: indicator bacterial test strains; assay: Inhibitory activity of freeze dried raw ingredient powder, K12; details: galactose 0.5% w/w; raffinose 2.5% w/w; or combination
Procedure: Method: The amount of raffinose and galactose used was calculated based on the volume of the area of the producer streak, (which was calculated to be 4.25 g) to allow for the absorption of the saccharides into the agar. Based on this, amount of 0.021 g (i.e. 0.5% w/w galactose of 4.25 g agar volume) of galactose, 0.11 g (i.e 2.5% w/w) of raffinose and the combination of galactose (0.5% w/w) and raffinose (2.5% w/w) (0.13 g total) were weighed into sterile containers. K12 and/or M18 raw ingredient were suspended and diluted with sterile distilled water to a concentration of 1-2×10^6 cfu/100 μl. Then, […] of K12 only, M18 only, and K12±M18 suspensions were spread as a 1 cm streak down the middle of a CABCa agar plate using a sterile spreader. […] Bacterial growth was then removed using a microscope slide, and the pH of the agar in the producer streak area was measured and adjusted to pH 6.5-7.5 using 0.5M sodium carbonate (pH 11) before surface sterilizing the plates with chloroform vapour. […] Zones of inhibition for each test organism were then measured in mm using a ruler. The amount of raffinose and galactose to be used was calculated based on the volume of the area of the producer streak, (which was calculated to be 4.25 g) to allow for absorption into the agar.

`O=C[C@H](O)[C@@H](O)[C@@H](O)[C@H](O)CO` [Galactose, D-galactose] showed a zone of inhibition at 0.5 % strength ([1]; Galactose 0.5% w/w) of 8 mm, a zone of inhibition at 1.25 % strength ([1]; Galactose 1.25% w/w) of 5 mm and a zone of inhibition at 1.7 % strength ([1]; Galactose 1.7% w/w) of 0 mm. For the same molecule, the zone of inhibition at 2.5 % strength ([1]; Galactose 2.5% w/w) was 6 mm, the zone of inhibition at 3.3 % strength ([1]; Galactose 3.3% w/w) was 2 mm and the zone of inhibition at 5 % strength ([1]; Galactose 5% w/w) was 0 mm. It also gave a zone of inhibition at 0.5 % strength ([2]; Galactose 0.5% w/w) of 10 mm, a zone of inhibition at 1.25 % strength ([2]; Galactose 1.25% w/w) of 6 mm and a zone of inhibition at 1.7 % strength ([2]; Galactose 1.7% w/w) of 0 mm. It also gave a zone of inhibition at 2.5 % strength ([2]; Galactose 2.5% w/w) of 0 mm, a zone of inhibition at 3.3 % strength ([2]; Galactose 3.3% w/w) of 6 mm and a zone of inhibition at 5 % strength ([2]; Galactose 5% w/w) of 0 mm. For the same molecule, the zone of inhibition at 0.5 % strength ([3]; Galactose 0.5% w/w) was 16 mm, the zone of inhibition at 1.25 % strength ([3]; Galactose 1.25% w/w) was 0 mm and the zone of inhibition at 1.7 % strength ([3]; Galactose 1.7% w/w) was 0 mm. For the same molecule, the zone of inhibition at 2.5 % strength ([3]; Galactose 2.5% w/w) was 0 mm, the zone of inhibition at 3.3 % strength ([3]; Galactose 3.3% w/w) was 6 mm and the zone of inhibition at 5 % strength ([3]; Galactose 5% w/w) was 0 mm. It also gave a zone of inhibition at 0.5 % strength ([4]; Galactose 0.5% w/w) of 19.5 mm, a zone of inhibition at 1.25 % strength ([4]; Galactose 1.25% w/w) of 13.5 mm and a zone of inhibition at 1.7 % strength ([4]; Galactose 1.7% w/w) of 9.5 mm. The zone of inhibition at 2.5 % strength ([4]; Galactose 2.5% w/w) was 16.5 mm, the zone of inhibition at 3.3 % strength ([4]; Galactose 3.3% w/w) was 9.5 mm and the zone of inhibition at 5 % strength ([4]; Galactose 5% w/w) was 9.5 mm. For the same molecule, the “inhibitory activity of freeze-dried raw ingredient powder of K12” value [5] was “induced the inhibitory activity”.
